Test results from US20040248816A1, “Treatment of migraine” (Boehringer Ingelheim International GmbH, priority 2003, published 2004).

Test system: vasodilatation of the facial skin, induced by electrical ganglion stimulation
Assay: Facial skin blood flow: vasodilatation of the facial skin induced by electrical trigeminal ganglion stimulation
Assay type: in vivo, rat
Conditions: anaesthetised male Wistar rats, i.v. 5 minutes before the second stimulation, BIBN 4096 Cl 0.03 mg/kg, sumatriptan 1.0 mg/kg, combination (0.03 mg + 1.0 mg)/kg; for % of trigeminus stimulation: first stimulation as control, saline control 82.7 ± 4.4
Procedure: Measurement of the Facial Skin Blood Flow
The facial skin blood flow was measured by a modified method as described by Escott et al. (Escott, K. J., Beattie, D. T., Connor, H. E., Brain, S. D. (1995), Trigeminal ganglion stimulation increases facial skin blood flow in the rat: a major role for calcitonin gene-related peptide, Brain Research, 669(1), 93-99). Fasting male Wistar rats (strain CHbb:THOM, 280-320 g) were anaesthetised with sodium pentobarbitone (initially with 60 mg/kg i.p. and maintained throughout the experiment with an intraperitoneal infusion of 30 mg/kg/h through a 23 G needle using a solution of 10 mg/ml). Both sides of the buccal region of the facial skin were shaved and depilated with a commercially available depilatory cream (Pilca, Schwarzkopf & Henkel, 40551 Düsseldorf, Germany). The trachea was fitted with a cannula, and the animals were artificially ventilated (80 breaths per minute) with ambient air enriched with oxygen. The body temperature was maintained at 37° C. using an automatic heating pad. The left femoral artery and left femoral vein were fitted with cannulas for continuous measurement of the arterial blood pressure or the intravenous administration of test compounds. A neuromuscular blockade was obtained by intravenous administration of pancuronium bromide (1 mg/kg/0.5 ml, 5 minutes before each electrical stimulation). The heart rate was derived from the blood pressure signal. The blood pressure and heart rate were recorded continuously during the course of the experiment in order to assess the level of anaesthesia and monitor the cardiovascular activities of the pharmaceutical compositions used in this study.
The animals were placed in a stereotactic frame, and a longitudinal cut was made in the scalp. A small hole was drilled in the skull (on the left or right) and a bipolar electrode (Rhodes SNEX-100, obtained from David Kopf Instruments, Tujunga, 91042 Calif., USA) was lowered by means of a micromanipulator into the trigeminal ganglion (0.32 cm dorsally of the bregma, ±0.30 cm laterally of the centre line and 0.95 cm below the dural surface). The position of the electrodes in the trigeminal ganglia was checked visually at the end of each experiment after the removal of the brain. […] Microvascular changes in blood flow in the facial skin were measured by laser Doppler flow measurement using a Periflux Laser-Doppler system (PeriFLUX 4001, wavelength: 780 nm; time constant: 3 s; Perimed AB, Järfälla, S-17526, Sweden). […] Changes in blood flow were measured as flow in any desired units and expressed as the area under the flow curve (mm^2) according to Escott et al. (1995). […]

[1] = Rattus norvegicus, iv, versus saline solution control, read-out: % inhibition compared with the control value

| Compound | inhibition at 0.03 mg/kg [1] [%] | % of trigeminus stimulation [%] | inhibition at 1 mg/kg [1] [%] |
| --- | --- | --- | --- |
| NCCCC[C@H](NC(=O)[C@@H](Cc1cc(Br)c(O)c(Br)c1)NC(=O)N1CCC(N2Cc3ccccc3NC2=O)CC1)C(=O)N1CCN(c2ccncc2)CC1 [BIBN 4096 Cl, 1-[N^2-[3,5-dibromo-N-[[4-(3,4-dihydro-2(1H)-oxoquinazolin-3-yl)-1-piperidinyl]-carbonyl]-D-tyrosyl]-L-lysyl]-4-(4-pyridinyl)-piperazine] | 27.1 | 60.3 ± 5.1 |  |
| CNS(=O)(=O)Cc1ccc2[nH]cc(CCN(C)C)c2c1 [sumatriptan] |  | 68.8 ± 6.8 | 16.8 |
